# Active and inactive are the calls of the source. The calls are words filed in the database; no cut-off is given here.
# Tests used:
# Oryza sativa [1] = assay: Effect on total phenols level in Sogatella furcifera-resistanct Oryza sativa (rice) plant PR116 leaf blade measured per gram of dry weight at 0.100% concentration (reference value: 8.08 mg/g dry wt); format: ADME, organism-based; conditions: in vivo
# Sogatella furcifera [2] = assay: Insecticidal activity against Sogatella furcifera on insect-resistanct rice plant PR116 assessed as nymphal survival at 0.100% concentration (reference value: 70.28%); format: functional
# Sogatella furcifera [3] = assay: Insecticidal activity against Sogatella furcifera on insect-resistanct rice plant PR116 assessed as growth index at 0.100% concentration (reference value: 6.02%); format: functional
# Sogatella furcifera [4] = assay: Insecticidal activity against Sogatella furcifera on insect-resistanct rice plant PR116 assessed as resurgence ratio at 0.100% concentration; format: functional
# Sogatella furcifera [5] = assay: Insecticidal activity against Sogatella furcifera on insect-sensitive rice plant ARC6248 assessed as nymphal survival at 0.100% concentration (reference value: 34.17%); format: functional
# Oryza sativa [6] = assay: Effect on total amino acids level in Sogatella furcifera-sensitive Oryza sativa (rice) plant ARC6248 leaf sheath measured per gram of dry weight at 0.100% concentration (reference value: 2.11 mg/g fresh wt); format: ADME, organism-based; conditions: in vivo
# Sogatella furcifera [7] = assay: Insecticidal activity against Sogatella furcifera on insect-sensitive rice plant ARC6248 assessed as growth index at 0.100% concentration (reference value: 2.38%); format: functional
# Sogatella furcifera [8] = assay: Insecticidal activity against Sogatella furcifera on insect-resistanct rice plant PR116 assessed as hopper population at 0.100% concentration; format: functional, organism-based
# Oryza sativa [9] = assay: Effect on reducing sugar level in Sogatella furcifera-resistanct Oryza sativa (rice) plant PR116 leaf sheath measured per gram of dry weight at 0.100% concentration (reference value: 7.50 mg/g dry wt); format: ADME, organism-based; conditions: in vivo
# Oryza sativa [10] = assay: Effect on total phenols level in Sogatella furcifera-sensitive Oryza sativa (rice) plant ARC6248 leaf blade measured per gram of dry weight at 0.100% concentration (reference value: 17.08 mg/g dry wt); format: ADME, organism-based; conditions: in vivo
# Oryza sativa [11] = assay: Effect on reducing sugar level in Sogatella furcifera-sensitive Oryza sativa (rice) plant ARC6248 leaf blade measured per gram of dry weight at 0.100% concentration (reference value: 8.37 mg/g dry wt); format: ADME, organism-based; conditions: in vivo
# Sogatella furcifera [12] = assay: Insecticidal activity against Sogatella furcifera on insect-resistanct rice plant PR116 assessed as nymphal duration at 0.100% concentration (reference value: 11.75 days); format: functional
# Oryza sativa [13] = assay: Effect on total protein level in Sogatella furcifera-resistanct Oryza sativa (rice) plant PR116 leaf blade measured per gram of dry weight at 0.100% concentration (reference value: 21.67 mg/g fresh wt); format: ADME, organism-based; conditions: in vivo
# Oryza sativa [14] = assay: Effect on total protein level in Sogatella furcifera-sensitive Oryza sativa (rice) plant ARC6248 leaf sheath measured per gram of dry weight at 0.100% concentration (reference value: 6.11 mg/g […]); format: ADME, organism-based; conditions: in vivo
# Oryza sativa [15] = assay: Effect on reducing sugar level in Sogatella furcifera-resistanct Oryza sativa (rice) plant PR116 leaf blade measured per gram of dry weight at 0.100% concentration (reference value: 9.35 mg/g dry wt); format: ADME, organism-based; conditions: in vivo
# Oryza sativa [16] = assay: Effect on total phenols level in Sogatella furcifera-resistanct Oryza sativa (rice) plant PR116 leaf sheath measured per gram of dry weight at 0.100% concentration (reference value: 5.75 mg/g dry wt); format: ADME, organism-based; conditions: in vivo
# Oryza sativa [17] = assay: Effect on total sugar level in Sogatella furcifera-sensitive Oryza sativa (rice) plant ARC6248 leaf blade measured per gram of dry weight at 0.100% concentration (reference value: 34.05 mg/g dry wt); format: ADME, organism-based; conditions: in vivo
# Oryza sativa [18] = assay: Effect on total phenols level in Sogatella furcifera-sensitive Oryza sativa (rice) plant ARC6248 leaf sheath measured per gram of dry weight at 0.100% concentration (reference value: 12.75 mg/g dry wt); format: ADME, organism-based; conditions: in vivo
# Oryza sativa [19] = assay: Effect on total amino acids level in Sogatella furcifera-resistanct Oryza sativa (rice) plant PR116 leaf blade measured per gram of dry weight at 0.100% concentration (reference value: 3.91 mg/g […]); format: ADME, organism-based; conditions: in vivo
# Sogatella furcifera [20] = assay: Insecticidal activity against Sogatella furcifera on insect-sensitive rice plant ARC6248 assessed as resurgence ratio at 0.100% concentration; format: functional
# Sogatella furcifera [21] = assay: Insecticidal activity against Sogatella furcifera on insect-sensitive rice plant ARC6248 assessed as nymphal duration at 0.100% concentration (reference value: 14.48 days); format: functional
# Oryza sativa [22] = assay: Effect on reducing sugar level in Sogatella furcifera-sensitive Oryza sativa (rice) plant ARC6248 leaf sheath measured per gram of dry weight at 0.100% concentration (reference value: 6.41 mg/g dry wt); format: ADME, organism-based; conditions: in vivo
# Oryza sativa [23] = assay: Effect on total sugar level in Sogatella furcifera-resistanct Oryza sativa (rice) plant PR116 leaf sheath measured per gram of dry weight at 0.100% concentration (reference value: 30.27 mg/g dry wt); format: ADME, organism-based; conditions: in vivo
# Oryza sativa [24] = assay: Effect on total sugar level in Sogatella furcifera-sensitive Oryza sativa (rice) plant ARC6248 leaf sheath measured per gram of dry weight at 0.100% concentration (reference value: 25.98 mg/g dry wt); format: ADME, organism-based; conditions: in vivo
# Oryza sativa [25] = assay: Effect on total protein level in Sogatella furcifera-resistanct Oryza sativa (rice) plant PR116 leaf sheath measured per gram of dry weight at 0.100% concentration (reference value: 7.06 mg/g fresh wt); format: ADME, organism-based; conditions: in vivo
# Oryza sativa [26] = assay: Effect on total amino acids level in Sogatella furcifera-resistanct Oryza sativa (rice) plant PR116 leaf sheath measured per gram of dry weight at 0.100% concentration (reference value: 2.58 mg/g […]); format: ADME, organism-based; conditions: in vivo
# Oryza sativa [27] = assay: Effect on total amino acids level in Sogatella furcifera-sensitive Oryza sativa (rice) plant ARC6248 leaf blade measured per gram of dry weight at 0.100% concentration (reference value: 3.54 mg/g fresh wt); format: ADME, organism-based; conditions: in vivo
# Oryza sativa [28] = assay: Effect on total sugar level in Sogatella furcifera-resistanct Oryza sativa (rice) plant PR116 leaf blade measured per gram of dry weight at 0.100% concentration (reference value: 36.16 mg/g dry wt); format: ADME, organism-based; conditions: in vivo
# Sogatella furcifera [29] = assay: Insecticidal activity against Sogatella furcifera on insect-sensitive rice plant ARC6248 assessed as reproduction at 0.100% concentration; format: functional, organism-based
# Oryza sativa [30] = assay: Effect on total protein level in Sogatella furcifera-sensitive Oryza sativa (rice) plant ARC6248 leaf blade measured per gram of dry weight at 0.100% concentration (reference value: 17.67 mg/g […]); format: ADME, organism-based; conditions: in vivo
structure (smiles),measurement,setting,value
CCOP(=S)(OCC)Oc1nc(Cl)c(Cl)cc1Cl [CHLORPYRIFOS],Activity,Oryza sativa [1],7.67 mg
same,Survival,Sogatella furcifera [2],69.45%
same,growth inhibition (GI),Sogatella furcifera [3],5.94%
same,Ratio,Sogatella furcifera [4],<1
same,Survival,Sogatella furcifera [5],32.5%
same,Activity,Oryza sativa [6],1.75 mg
same,growth inhibition (GI),Sogatella furcifera [7],2.25%
same,Activity,Sogatella furcifera [8],inactive
same,Activity,Oryza sativa [9],7.72 mg
same,Activity,Oryza sativa [10],18.75 mg
same,Activity,Oryza sativa [11],7.5 mg
same,Time,Sogatella furcifera [12],11.75 days
same,Activity,Oryza sativa [13],19.44 mg
same,Activity,Oryza sativa [14],5 mg
same,Activity,Oryza sativa [15],9.13 mg
same,Activity,Oryza sativa [16],6.08 mg
same,Activity,Oryza sativa [17],33.21 mg
same,Activity,Oryza sativa [18],14.08 mg
same,Activity,Oryza sativa [19],4 mg
same,Ratio,Sogatella furcifera [20],<1
same,Time,Sogatella furcifera [21],14.63 days
same,Activity,Oryza sativa [22],6.31 mg
same,Activity,Oryza sativa [23],31.34 mg
same,Activity,Oryza sativa [24],25.98 mg
same,Activity,Oryza sativa [25],7.72 mg
same,Activity,Oryza sativa [26],2.22 mg
same,Activity,Oryza sativa [27],3 mg
same,Activity,Oryza sativa [28],39.37 mg
same,Activity,Sogatella furcifera [29],inactive
same,Activity,Oryza sativa [30],18.22 mg
O=S1OCC2C(CO1)C1(Cl)C(Cl)=C(Cl)C2(Cl)C1(Cl)Cl (stereo not given) [ENDOSULFAN],Activity,Oryza sativa [1],10 mg
same,Survival,Sogatella furcifera [2],67.5%
same,growth inhibition (GI),Sogatella furcifera [3],5.66%
same,Ratio,Sogatella furcifera [4],<1
same,Survival,Sogatella furcifera [5],32.22%
same,Activity,Oryza sativa [6],2.46 mg
same,growth inhibition (GI),Sogatella furcifera [7],2.24%
same,Activity,Sogatella furcifera [8],inactive
same,Activity,Oryza sativa [9],7.17 mg
same,Activity,Oryza sativa [10],21.75 mg
same,Activity,Oryza sativa [11],7.94 mg
same,Time,Sogatella furcifera [12],12 days
same,Activity,Oryza sativa [13],18.33 mg
same,Activity,Oryza sativa [14],5 mg
same,Activity,Oryza sativa [15],8.26 mg
same,Activity,Oryza sativa [16],7.83 mg
same,Activity,Oryza sativa [17],34.55 mg
same,Activity,Oryza sativa [18],17.08 mg
same,Activity,Oryza sativa [19],3.38 mg
same,Ratio,Sogatella furcifera [20],<1
same,Time,Sogatella furcifera [21],14.5 days
same,Activity,Oryza sativa [22],5.98 mg
same,Activity,Oryza sativa [23],28.12 mg
same,Activity,Oryza sativa [24],30 mg
same,Activity,Oryza sativa [25],7.78 mg
same,Activity,Oryza sativa [26],2.4 mg
same,Activity,Oryza sativa [27],3.31 mg
same,Activity,Oryza sativa [28],34.02 mg
same,Activity,Sogatella furcifera [29],inactive
same,Activity,Oryza sativa [30],16.56 mg
CCOP(=S)(OCC)Oc1cnc2ccccc2n1 [QUINALPHOS],Activity,Oryza sativa [1],6.75 mg
same,Survival,Sogatella furcifera [2],72.22%
same,growth inhibition (GI),Sogatella furcifera [3],6.24%
same,Ratio,Sogatella furcifera [4],1.31
same,Survival,Sogatella furcifera [5],37.5%
same,Activity,Oryza sativa [6],2.38 mg
same,growth inhibition (GI),Sogatella furcifera [7],2.61%
same,Activity,Sogatella furcifera [8],inactive
same,Activity,Oryza sativa [9],11.31 mg
same,Activity,Oryza sativa [10],17.08 mg
same,Activity,Oryza sativa [11],10 mg
same,Time,Sogatella furcifera [12],11.65 days
same,Activity,Oryza sativa [13],22.78 mg
same,Activity,Oryza sativa [14],7.22 mg
same,Activity,Oryza sativa [15],13.04 mg
same,Activity,Oryza sativa [16],5.67 mg
same,Activity,Oryza sativa [17],38.84 mg
same,Activity,Oryza sativa [18],1308 mg
same,Activity,Oryza sativa [19],4.89 mg
same,Ratio,Sogatella furcifera [20],1.13
same,Time,Sogatella furcifera [21],14.46 days
same,Activity,Oryza sativa [22],8.8 mg
same,Activity,Oryza sativa [23],30.27 mg
same,Activity,Oryza sativa [24],31.87 mg
same,Activity,Oryza sativa [25],8.5 mg
same,Activity,Oryza sativa [26],2.93 mg
same,Activity,Oryza sativa [27],3.61 mg
same,Activity,Oryza sativa [28],42.05 mg
same,Activity,Sogatella furcifera [29],inactive
same,Activity,Oryza sativa [30],21.56 mg

# From ChEMBL document CHEMBL3045481, “Insecticide-induced resurgence of the whitebacked planthopper Sogatella furcifera (Horvath) (Hemiptera: Delphacidae) on rice varieties with different levels of resistance” (Crop Prot, 2011)
